In publication PMC10449633 (Nature Chemical Biology, 2023):
Several values for one entry are separate records, joined by “and”; a condition that tells them apart may be missing. Equal values may be shown once. Read-outs that look alike come from different tables or passages of the source. Numbered stars: 1 amine (or outer) side, 2 acyl side, 3 side chain; on linkers, the order of the positions; unused ones are H or OH. Square brackets hold non-standard residues; d marks the D form. Peptide text beside a SMILES is read from it. ξ: configuration not given here. X1 = CN(C(Cc1cn(Cc2ccc(Br)cc2)c2ccccc12)C(=O)[*:2])[*:1]; ξAla(CF3) = NC(CC(F)(F)F)C(=O)O; X2 = N#CCCC(O[*:1])C(=O)[*:2]; NMeL = CN[CH](CC(C)C)C(=O)O; NMeA = CN[CH](C)C(=O)O

Legend:
SARS-CoV-2 = type: cell-based; details: 48 h
[1] = tested on: human peripheral blood mononuclear cells (PBMCs); assay: Cytokine secretion assay, stimulated human PBMCs (MSD U-PLEX); type: cell-based; details: for IC50: 24 h, tested 0.025–25,000 nM
Sec61α = assay: Photo-cotransin (CT7) photo-affinity labeling competition, LMNG-solubilized ER microsomes; type: binding, sheep; details: excess competitor, LMNG-solubilized ER membranes
Excerpt: To understand the molecular basis of Sec61 inhibition by KZR-8445, we pursued structural investigations using single-particle cryo-EM. Our initial attempts to isolate cotransin-bound ribosome–Sec61 complexes with the commonly used detergent digitonin were not successful. Several other detergents were screened for retention of native-like cotransin binding by subjecting solubilized Sec61 to a cotransin photo-affinity labeling assay[15] (Extended Data Fig. 2a). This screen identified lauryl maltoside neopentyl glycol (LMNG), a lipid-mimetic detergent that permits maximal photo-cotransin binding, as indicated by specific crosslinking to the Sec61α subunit in LMNG-solubilized ER membranes.
Sheep pancreatic ER microsomes (SRM) were isolated according to the method described earlier[48],[49]. […] The labeled proteins were analyzed by SDS–PAGE and in-gel fluorescence followed by Western blotting using anti-Sec61α and anti-RPL18 antibodies. […]
Extended Data Fig. 2 Isolation and biochemical characterization of the inhibitor-bound ribosome-Sec61 (RNC) complexes. […] (c) Gel filtration profile of clarified detergent-solubilized sample fractions with measured absorbance at A260. […]

mouse splenocytes = details: 24 h treatment
Sec61α (HEK 293 FRT) = biological target: T1, Sec61α (HEK 293 FRT) (Homo sapiens, UniProt P61619); assay: Luciferase reporter assay in parental HEK 293 FRT cells; type: cell-based; details: HEK293, 24 h
T1 construct: host or cells: HEK293 Flp-In T-REx (parental, 'HEK 293 FRT')
T1 sequence (P60468 whole entry): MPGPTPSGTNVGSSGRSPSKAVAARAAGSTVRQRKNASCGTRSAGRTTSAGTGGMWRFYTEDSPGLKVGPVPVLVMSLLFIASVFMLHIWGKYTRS
T1 sequence (P60059 whole entry, further chain): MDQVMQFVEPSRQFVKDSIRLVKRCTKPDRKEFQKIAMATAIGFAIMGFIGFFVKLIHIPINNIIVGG
T1 sequence (P61619 whole entry): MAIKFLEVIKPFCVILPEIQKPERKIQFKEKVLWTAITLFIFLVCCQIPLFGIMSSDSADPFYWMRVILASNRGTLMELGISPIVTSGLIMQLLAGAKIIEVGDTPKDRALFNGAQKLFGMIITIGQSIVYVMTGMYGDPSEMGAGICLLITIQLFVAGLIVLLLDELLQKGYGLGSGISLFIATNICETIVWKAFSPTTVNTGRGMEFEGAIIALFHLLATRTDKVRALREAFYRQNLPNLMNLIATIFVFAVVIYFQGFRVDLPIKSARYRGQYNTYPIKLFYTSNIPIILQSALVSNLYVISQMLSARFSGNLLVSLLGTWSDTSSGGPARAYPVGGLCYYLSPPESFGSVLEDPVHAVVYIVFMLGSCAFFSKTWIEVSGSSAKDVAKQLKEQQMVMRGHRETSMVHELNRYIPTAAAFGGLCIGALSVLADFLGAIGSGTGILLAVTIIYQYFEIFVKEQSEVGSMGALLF
Excerpt: All mutants were sequence verified.

Sec61α T86M = Sec61α T86M (Canis lupus familiaris, UniProt P38377, T86M); assay: Luciferase reporter assay in HEK293 cells expressing Sec61α T86M; details: HEK293, 24 h, read-out: luciferase reporter activity (% of no-drug control), T86M
Sequence of Sec61α T86M (P60468 whole entry, the tested form may be a part): as the sequence (P60468 whole entry) above
Sequence of Sec61α T86M (P38377 whole entry T86M, the tested form may be a part): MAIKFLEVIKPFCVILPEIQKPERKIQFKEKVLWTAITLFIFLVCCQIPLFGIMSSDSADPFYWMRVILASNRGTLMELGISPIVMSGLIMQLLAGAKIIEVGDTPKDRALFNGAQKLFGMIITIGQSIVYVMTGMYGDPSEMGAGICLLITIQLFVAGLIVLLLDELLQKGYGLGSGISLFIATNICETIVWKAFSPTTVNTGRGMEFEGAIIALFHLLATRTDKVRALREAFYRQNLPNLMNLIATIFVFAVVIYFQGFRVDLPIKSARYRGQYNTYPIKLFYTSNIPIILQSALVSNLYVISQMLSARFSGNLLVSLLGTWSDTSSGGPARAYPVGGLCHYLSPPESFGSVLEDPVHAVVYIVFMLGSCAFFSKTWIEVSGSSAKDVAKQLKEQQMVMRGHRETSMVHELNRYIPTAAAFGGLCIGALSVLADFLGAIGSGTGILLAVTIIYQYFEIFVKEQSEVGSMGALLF
Sequence of Sec61α T86M (P60059 whole entry, further chain, the tested form may be a part): as the sequence (P60059 whole entry, further chain) above
Experimental: Data are mean values ± s.d. from n = 2 independent experiments.
HEK293T cells (0.3 × 10^6) were seeded per well of a six-well plate and incubated at 37 °C in 5% CO2 for 24 h to adhere. Each of the two wells was transfected with 1 µg of plasmid encoding a luciferase with the signal peptide of either VCAM1 or pPL using PEI in a 5:1 ratio, after which cells were returned to the incubator for a further 24 h. Transfected cells were then resuspended following trypsinization, cell count estimated using a TC20 Automated Cell Counter (BioRad) and diluted to seed a 96-well flat-bottom plate with 1.6 × 10^4 cells per well. […] Cells were then incubated for a further 24 h, after which the luciferase-containing media were transferred to a clean 96-well plate and stored at −20 °C. Luciferase activity of the media was estimated using a Gaussia-GLOW Juice Luciferase Assay kit from PJK Biotech GmbH as per the manufacturer’s instructions. Luminescence was measured using an EnSpire Multimode plate reader (PerkinElmer). Background luminescence from media placed in a well with neither cells nor drug was subtracted from all values, and measurements were calculated as a percentage of luminescence intensity of a well expressing the appropriate luciferase construct in the absence of any drug. Curves were fitted, and IC50 values were calculated using GraphPad Prism 8.
HEK293 Flp-In T-REx cells (Thermo Fisher Scientific, R78007) were cultured in Dulbecco’s modified Eagle’s medium (Gibco) supplemented with 10% FBS (Gibco) at 37 °C in a humidified 5% CO2 atmosphere. Approximately 0.3 µg of pOG44 and 1 µg of targeting construct plasmids were mixed in 250 µl of OptiMEM (Thermo Fisher Scientific, 51985-026). A total of 3 µl (3 µg) Lipofectamine3000 transfection reagent was then added to the DNA mix and incubated at room temperature for 20 min, and the whole mixture was added to the cells. Cells were exposed to 100 µg ml^−^1 hygromycin B (Invitrogen) and 10 µg ml^−^1 blasticidin for 3–4 weeks until the appearance of resistant colonies. Colonies were expanded into T75 flasks and induced with doxycycline (Sigma-Aldrich, D9891) at a concentration of 1–5 µg ml^−^1 for 48 h. Cells were collected, and total RNA was extracted followed by cDNA amplification and sequencing of Sec61 with gene-specific PCR primers to confirm. Cells were then used for the luciferase reporter assays as above.
Data are mean values ± SD and are representative of n = 2 independent experiments.

WT Sec61α = biological target: T2, WT Sec61α (Canis lupus familiaris, UniProt P38377); assay: GLuc secretion reporter fused to full-length IL-2 or TNF, cells stably expressing WT Sec61α; type: cell-based, canine; details: for Sec61 WT - Hu IL2(FL) / Sec61 WT - Hu PD1(ss) / Sec61 WT - Hu TNFa(FL): replicate columns
T2 construct: expressed in transfected cells
T2 sequence (P60468 whole entry, the tested form may be a part): as the sequence (P60468 whole entry) above
T2 sequence (P38377 whole entry, the tested form may be a part): as the sequence (P38377 whole entry T86M, the tested form may be a part) above, with M86T counted along it
T2 sequence (P60059 whole entry, further chain, the tested form may be a part): as the sequence (P60059 whole entry, further chain) above

CC(C)CC1NC(=O)C(Cc2cn(Cc3ccc(Br)cc3)c3ccccc23)N(C)C(=O)C(CC(F)(F)F)NC(=O)C(CC(C)C)N(C)C(=O)C(CC(F)(F)F)NC(=O)C(CCC#N)OC(=O)C(C)N(C)C1=O (stereo not drawn) [KZR-8445] (cyclo([X1]L[NMeA][X2][ξAla(CF3)][NMeL][ξAla(CF3)]); configuration not given here)
viral genome copy number (SARS-CoV-2; 0.01 uM): 25500000 and 22400000 and 23500000
viral genome copy number (SARS-CoV-2; 0.04 uM): 23500000 and 23900000 and 21400000
viral genome copy number (SARS-CoV-2; 0.12 uM): 29500000 and 28600000 and 23600000
viral genome copy number (SARS-CoV-2; 0.37 uM): 48700000 and 30700000 and 26200000
viral genome copy number (SARS-CoV-2; 1.11 uM): 22100000 and 25700000 and 28600000
viral genome copy number (SARS-CoV-2; 3.33 uM): 11600000 and 10500000 and 12800000
viral genome copy number (SARS-CoV-2; 10 uM): 8080000 and 9090000 and 8060000
IC50 ([1]; Homo sapiens, PBMC, LPS-stimulation, read-out: IC50, IL-1β secretion): > 25 µM
IC50 ([1]; Homo sapiens, PBMC, LPS-stimulation, read-out: IC50, IL-23 secretion): 0.167 µM
IC50 ([1]; Homo sapiens, PBMC, anti-CD3/CD28-stimulation, read-out: IC50, GM-CSF secretion): 0.189 µM
IC50 ([1]; Homo sapiens, PBMC, anti-CD3/CD28-stimulation, read-out: IC50, IL-2 secretion): 0.0422 µM
IC50 ([1]; Homo sapiens, PBMC, anti-CD3/CD28-stimulation, read-out: IC50, TNFα secretion): 0.0426 µM
IC50 ([1]; LPS-stimulation, read-out: IC50, IL-23 secretion): 0.233 µM and 0.188 µM and 0.19 µM
IC50s, secretion of six of seven tested cytokines ([1]; activated human PBMCs and mouse splenocytes): submicromolar
IC50 ([1]; anti-CD3/CD28-stimulation, read-out: IC50, GM-CSF secretion): 0.185 µM and 0.222 µM and 0.212 µM
IC50 ([1]; anti-CD3/CD28-stimulation, read-out: IC50, IL-2 secretion): 0.0387 µM and 0.039 µM and 0.0266 µM
IC50 ([1]; anti-CD3/CD28-stimulation, read-out: IC50, TNFα secretion): 0.0318 µM and 0.0375 µM and 0.0262 µM
secretion of IL-1β ([1]; not Sec61-dependent): unaffected
competition of photo-cotransin crosslinking to Sec61α (Sec61α): efficiently competed
cell viability (CTG assay) (mouse splenocytes; 0.025 nM): 106.047 and 100.001
cell viability (CTG assay) (mouse splenocytes; 0.25 nM): 110.01 and 102.05
cell viability (CTG assay) (mouse splenocytes; 2.5 nM): 105.776 and 105.957
cell viability (CTG assay) (mouse splenocytes; 25 nM): 105.176 and 97.9523
cell viability (CTG assay) (mouse splenocytes; 250 nM): 107.467 and 93.3938
cell viability (CTG assay) (mouse splenocytes; 2500 nM): 99.7089 and 85.9729
cell viability (CTG assay) (mouse splenocytes; 25000 nM): 95.1208 and 88.5789
remaining activity at 0.00152 µM (Sec61α (HEK 293 FRT); Drug nM (log10) 0.18303, read-out: luciferase reporter activity (% of no-drug control)): 88.7%
remaining activity at 0.00457 µM (Sec61α (HEK 293 FRT); Drug nM (log10) 0.660151, read-out: luciferase reporter activity (% of no-drug control)): 75.3%
remaining activity at 0.04115 µM (Sec61α (HEK 293 FRT); Drug nM (log10) 1.61439, read-out: luciferase reporter activity (% of no-drug control)): 27%
remaining activity at 0.1235 µM (Sec61α (HEK 293 FRT); Drug nM (log10) 2.09151, read-out: luciferase reporter activity (% of no-drug control)): 12.8%
remaining activity at 0.37 µM (Sec61α (HEK 293 FRT); Drug nM (log10) 2.56864, read-out: luciferase reporter activity (% of no-drug control)): 4.89%
remaining activity at 1.111 µM (Sec61α (HEK 293 FRT); Drug nM (log10) 3.04576, read-out: luciferase reporter activity (% of no-drug control)): 2.41%
remaining activity at 3.33 µM (Sec61α (HEK 293 FRT); Drug nM (log10) 3.52288, read-out: luciferase reporter activity (% of no-drug control)): 2.03%
remaining activity at 10 µM (Sec61α (HEK 293 FRT); Drug nM (log10) 4, read-out: luciferase reporter activity (% of no-drug control)): 2.36%
remaining activity at 0.00050805 µM (Sec61α (HEK 293 FRT); Drug nM (log10) -0.29409, read-out: luciferase reporter activity (% of no-drug control)): 92.4%
remaining activity at 0.00018303 µM (Sec61α T86M; Drug nM (log10) 0.18303): 84.6%
remaining activity at 0.000660151 µM (Sec61α T86M; Drug nM (log10) 0.660151): 76%
remaining activity at 0.00113727 µM (Sec61α T86M; Drug nM (log10) 1.13727): 53.5%
remaining activity (Sec61α T86M; Drug nM (log10) 1.61439): 28.5%
remaining activity (Sec61α T86M; Drug nM (log10) 2.09151): 12.1%
remaining activity (Sec61α T86M; Drug nM (log10) 2.56864): 5.08%
remaining activity (Sec61α T86M; Drug nM (log10) 3.04576): 2.62%
remaining activity (Sec61α T86M; Drug nM (log10) 3.52288): 2.32%
remaining activity at 0.004 µM (Sec61α T86M; Drug nM (log10) 4): 2.59%
Sec61 WT - Hu IL2(FL) (WT Sec61α; 0.32 nM): 112 and 115 and 119
Sec61 WT - Hu PD1(ss) (WT Sec61α; 0.32 nM): 120 and 121 and 116
Sec61 WT - Hu TNFa(FL) (WT Sec61α; 0.32 nM): 132 and 105 and 123
Sec61 WT - Hu IL2(FL) (WT Sec61α; 1.6 nM): 108 and 112 and 116
Sec61 WT - Hu PD1(ss) (WT Sec61α; 1.6 nM): 107 and 115 and 113
Sec61 WT - Hu TNFa(FL) (WT Sec61α; 1.6 nM): 119 and 96 and 85
Sec61 WT - Hu IL2(FL) (WT Sec61α; 8 nM): 105 and 102 and 116
Sec61 WT - Hu PD1(ss) (WT Sec61α; 8 nM): 91 and 108 and 92
Sec61 WT - Hu TNFa(FL) (WT Sec61α; 8 nM): 123 and 114 and 93
Sec61 WT - Hu IL2(FL) (WT Sec61α; 40 nM): 89 and 83 and 75
Sec61 WT - Hu PD1(ss) (WT Sec61α; 40 nM): 62 and 54 and 56
Sec61 WT - Hu TNFa(FL) (WT Sec61α; 40 nM): 81 and 75 and 70
Sec61 WT - Hu IL2(FL) (WT Sec61α; 200 nM): 57 and 37 and 42
Sec61 WT - Hu PD1(ss) (WT Sec61α; 200 nM): 18 (2×) and 19
Sec61 WT - Hu TNFa(FL) (WT Sec61α; 200 nM): 36 and 30 and 29
Sec61 WT - Hu IL2(FL) (WT Sec61α; 1000 nM): 7 and 6 (2×)
Sec61 WT - Hu PD1(ss) (WT Sec61α; 1000 nM): 2
Sec61 WT - Hu TNFa(FL) (WT Sec61α; 1000 nM): 3 (2×) and 2
Sec61 WT - Hu IL2(FL) (WT Sec61α; 5000 nM): 1 and 0 (2×)
Sec61 WT - Hu PD1(ss) (WT Sec61α; 5000 nM): 0
Sec61 WT - Hu TNFa(FL) (WT Sec61α; 5000 nM): 1 and 0 (2×)
Sec61 WT - Hu IL2(FL) (WT Sec61α; 25000 nM): 0
Sec61 WT - Hu PD1(ss) (WT Sec61α; 25000 nM): 0 (2×) and -1
Sec61 WT - Hu TNFa(FL) (WT Sec61α; 25000 nM): 1 and 0 (2×)
IC50 (WT Sec61α; 24 h, doxycycline-induced): ~0.1 µM
